Where a name gives a salt, the structure may show the parent alone. Read-outs that look alike come from different tables or passages of the source.
Tests used:
[1] = Physicochemical properties, experimental literature values (Table I); conditions: classification in Table I
[2] = Drug uptake in NR8383 at 37 and 4°C (CLuptake, CLdiff, Kp); conditions: rat
Method: (§1) The studies were carried out in a 24-well plate format and the in vitro conditions were optimised in terms of cell detachment method from culture flasks, coating type of 24-well plates, seeding density, culturing time and drug incubation time points. Briefly, for cell detachment, gentle scraping versus Mg^2+-Ca^2+ free DPBS treatment of cells in culture flasks were tested. Considering the semi-adherent nature of AMs, cell seeding into non-coated, collagen-I and poly-D-lysine coated 24-well plates was investigated for cell attachment, distribution in the wells and detachment following DPBS washes during the uptake experiments. In addition, seeding densities of 0.36 and 0.72 × 10^6 cells per well were assessed with respect to cell attachment, confluency following culture (plating efficiency) and potential cell detachment following DPBS washes. Culturing time ranging from 4 to 24 h was investigated for optimal cell attachment before carrying out uptake experiments. Uptake rate and Kp data were normalised by cell number determined indirectly by measuring the amount of protein in samples by bicinchoninic acid (BCA) protein assay (Thermo Scientific, Loughborough, UK). Following the optimisation, detachment of NR8383 from cell culture flasks was performed by gentle scraping prior to cell counting and seeding into collagen-I coated 24-well plates at 0.5 × 10^6 cells per well. Cells were cultured for 16 h at 37°C, 5% CO2 (CO2 incubator, MCO-17AIC, Sanyo Biomedical, Loughborough, UK) before uptake studies performed over 1 to 10 min period.
(§2) The drug uptake in NR8383 corresponding to these conditions was described by total uptake (CLuptake) and passive diffusion (CLdiff) clearance terms, respectively. […] Substrate solutions were prepared by dilution of the stock solutions in DPBS resulting in final DMSO content < 1%. Uptake studies were performed in the presence of 1 mM ABT, a nonspecific P450 inhibitor, in order to avoid any potential impact of phase I metabolism. […] Following microscopy, the CGM was removed, cells were washed twice with 800 μL of either pre-warmed or ice-cold DPBS (for experiments at 37 and 4°C, respectively) and pre-incubation with 500 μL of pre-warmed or ice-cold ABT/DPBS was carried out for 20 min. Where ABT pre-treatment was not necessary, cell monolayers were treated with 500 μL of DPBS only. Once pre-incubation buffer was removed from the cell monolayers, incubations were started by addition of 400 μL of substrate solution (pre-warmed or ice-cold) in each well. Each substrate was incubated with the cells for 1, 2, 5 and 10 min and each time point at 37°C and 4°C. For 37°C experiments, incubation was carried out on a dry heater block maintained at 37°C throughout the experiment (Tecam Dri-block DB-3, Tecam, Princeton, NJ) and for 4°C experiments, the procedure was carried out on ice. Incubation with substrate was stopped by removal of the media with drug solution and washing the monolayers three times with 800 μL ice-cold DPBS. The back-diffusion of the drug from the cell into the medium was considered to be negligible under these conditions. The removed incubation media were retained for the measurement of drug medium concentrations and subsequent determination of Kp for each drug. The cells were lysed by addition of 200 μL ice-cold deionised water; cell lysates were kept at −20°C overnight and then processed further for LC-MS/MS analysis. Experiments were performed on three or more separate occasions for each drug investigated. […] The amount of protein per well was measured using a BSA calibration curve and absorbances read at 562 nm (S22 Boeco UV-Visible Spectrophotometer, Hamburg, Germany).

NR8383 cells [3] = experiment: as above; conditions: NR8383, 5 μM; CLdiff relative to CLuptake
Method: as §1, §2

[4] = Lysosomal sequestration studies in NR8383 with NH4Cl, monensin and nigericin; conditions: rat; for Kp at 10 min, 5 μM: NR8383, 5 μM drug; for Kp at 10 min, 20 µM: NR8383, 20 µM drug
Method: (§3) The extent of accumulation of drugs in lysosomes was assessed using the same uptake methodology, as described above in the absence and presence of NH4Cl and ionophores, monensin and nigericin. […] In addition, a range of incubation conditions was explored, including pre-incubation and co-incubation alone and combined together. Once the conditions were optimised, further experiments were performed with 20 mM NH4Cl co-incubated with investigated drugs. […] For incubations with monensin and nigericin, all drugs were prepared at 5 μM concentration and the incubations were carried out for 5 min (single time point). Following the treatment of the cell monolayers with drug alone or drug with the agents mentioned, incubations were stopped by washing of the cells with ice-cold DPBS as described above, followed by cell lysis in deionised water. All incubations were carried out in duplicate and experiments were performed for three separate occasions. The removed incubation media were retained for the measurement of drug concentrations and subsequent determination of Kp for each compound. Analysis of samples in LC-MS/MS was performed after cells were kept at −20°C overnight.
(§4) Kp and CLuptake were determined as described above for each drug both under control condition and in the presence of a chemical agent affecting the pH gradient between cytosol and lysosomes. The reduction in Kp and CLuptake of each drug in the presence of the chemical agents was expressed as a percentage relative to control and used as an indicator of the extent of lysosomal sequestration. A 50% reduction in both parameters was set as a cut-off for lysosomal accumulation, while also taking into account the physicochemical properties of the compounds (Table I) and the uncertainty associated with the experimental data.
(§5) The in vitro parameters were calculated on at least three separate occasions and the mean data were reported. When assessing the extent of lysosomal sequestration, the control and chemical agent treated cells were compared using the two-tailed, paired t-test in order to determine statistically significant difference between the two conditions. Values were reported as significant when p < 0.05.

NR8383 cells [5] = experiment: as above; conditions: for % Reduction in Kp by NH4Cl: NH4Cl 20 mM; for reduction in Kp in the presence of chemical agents (summary in Discussion): NR8383, NH4Cl, monensin, nigericin
Method: as §3, §4, §5

[6] = experimental value; ref ([21])-([30]) per drug, Table I; cited from earlier work
[7] = system: NR8383 cell line and granule fraction (containing lysosomes); conditions: NH4Cl 10 mM, drug 50 µM, ref (12), cited from earlier work
[8] = system: Lung tissue slices from male Sprague-Dawley rats; conditions: monensin 10 µM, desipramine, diazepam 5 µM, chloroquine, thiopental 10 µM, 60 min, ref (3); cited from earlier work
[9] = system: Lung tissue slices from male Wistar rats; set-up: method as in ref (5) (a number printed in a supplementary file, which may have a reference list of its own: not looked up in the article's list); conditions: NH4Cl 20 mM, drug 5 µM, 60 min, ref (5); cited from earlier work
[10] = system: Lung tissue slices from male Wistar rats; set-up: method as in ref (8) (a number printed in a supplementary file, which may have a reference list of its own: not looked up in the article's list); conditions: NH4Cl 20 mM, drug 5 µM, 60 min, ref (8); cited from earlier work
[11] = system: Lung tissue slices from male Wistar rats; set-up: method as in ref (9) (a number printed in a supplementary file, which may have a reference list of its own: not looked up in the article's list); conditions: NH4Cl 20 mM, drug 5 µM, 60 min, ref (9); cited from earlier work
[12] = system: Lung tissue slices from male Wistar rats; set-up: method as in ref (14) (a number printed in a supplementary file, which may have a reference list of its own: not looked up in the article's list); conditions: monensin 10 µM, drug 5 µM, 60 min, ref (14); cited from earlier work
NR8383 cells [13] = experiment: LysoTracker Red (LTR) confocal assessment of lysosomal sequestration in NR8383; format: cell-based, rat; conditions: NH4Cl 20 mM, monensin 5 μM, nigericin 10 μM with 200 nM LTR
[14] = NR8383 cells, Kp Control, control

Structure (SMILES): CCCC1O[C@@H]2C[C@H]3[C@@H]4CCC5=CC(=O)C=C[C@]5(C)[C@H]4[C@@H](O)C[C@]3(C)[C@]2(C(=O)CO)O1 (stereo partly drawn) [Budesonide]
- Acid–base Property [1]: Neutral
- Kp at 10 min, 5 μM ([2]; NR8383 cells, Kp (cell-to-medium concentration ratio), NR8383, 5 μM, 37°C, 10 min): 37.6 ± 11.4
- Contribution of passive (%) (NR8383 cells [3]): 97.2%
- Kp at 10 min, 5 μM ([4]; NR8383 cells, Kp + NH4Cl, 20 mM NH4Cl co-incubated, 10 min): 28.1 ± 7.12
- Kp at 10 min, 20 µM ([4]; NR8383 cells, Kp + NH4Cl, 20 mM NH4Cl): 31 ± 12
- Kp at 10 min, 5 μM [4, 14]: 31.5 ± 8.46
- Kp at 10 min, 20 µM [4, 14]: 34 ± 12.5
- % Reduction in Kp by NH4Cl (NR8383 cells [5]; NR8383, 5 μM drug): 10 ± 7.8%
- % Reduction in Kp by NH4Cl (NR8383 cells [5]; NR8383, 20 µM drug): 6.6 ± 4.1%
- % Reduction in CLuptake by NH4Cl (20 mM) (NR8383 cells [5]; NR8383, at 5 µM drug): 18 ± 15%
- reduction in Kp in the presence of chemical agents (summary in Discussion) (NR8383 cells [5]): < 15%

Structure (SMILES): CO[C@H]1/C=C/O[C@@]2(C)Oc3c(C)c(O)c4c(O)c(c(/C=N/N5CCN(C)CC5)c(O)c4c3C2=O)NC(=O)/C(C)=C\C=C\[C@H](C)[C@H](O)[C@@H](C)[C@@H](O)[C@@H](C)[C@H](OC(C)=O)[C@@H]1C [Rifampicin]
- Acid–base Property [1]: Zwitterion
- LogD7.4 [6]: 0.3
- pKa_b (basic pKa) [6]: 6.70

Structure (SMILES): CC[C@H]1OC(=O)[C@H](C)[C@@H](O[C@H]2C[C@@](C)(OC)[C@@H](O)[C@H](C)O2)[C@H](C)[C@@H](O[C@@H]2O[C@H](C)C[C@H](N(C)C)[C@H]2O)[C@](C)(O)C[C@@H](C)CN(C)[C@H](C)[C@@H](O)[C@]1(C)O [Azithromycin]
- Reduction in total uptake (%) ([7]; Granule, after subcellular fractionation, 30 min): 72%
- Reduction in total uptake (%) ([7]; before subcellular fractionation, azithromycin 120 min, clarithromycin 60 min): 97%

Structure (SMILES): CC(Cc1ccc(O)cc1)NCC(O)c1cc(O)cc(O)c1 (stereo not drawn) [Fenoterol]
- Acid–base Property [1]: Base
- LogD7.4 [6]: 0.74
- Kp at 10 min, 5 μM [2]: 5.69 ± 0.98
- hepatocyte CLint at 5 μM ([2]; other cell line): < 1 µL/min/1e6 cells
- Contribution of passive (%) (NR8383 cells [3]): 8.03%
- Kp at 10 min, 5 μM ([4]; Kp + NH4Cl, 20 mM NH4Cl co-incubated, 10 min): 2.91 ± 2.11
- Kp at 10 min, 20 µM ([4]; Kp + NH4Cl, 20 mM NH4Cl): 0.96 ± 0.33
- Kp at 10 min, 5 μM ([4]; Kp Control, control): 4.25 ± 2.64
- Kp at 10 min, 20 µM ([4]; Kp Control, control): 1.5 ± 0.93
- % Reduction in Kp by NH4Cl (NR8383 cells [5]; NR8383, 5 μM drug): 31 ± 23%
- % Reduction in Kp by Monensin (NR8383 cells [5]; NR8383, 5 μM drug, monensin 5 μM, 5 min): 27 ± 25%
- % Reduction in Kp by Nigericin (NR8383 cells [5]; NR8383, 5 μM drug, nigericin 10 μM, 5 min): 30 ± 12%
- % Reduction in Kp by NH4Cl (NR8383 cells [5]; NR8383, 20 µM drug): 27 ± 24%
- % Reduction in CLuptake by Monensin (5 µM) (NR8383 cells [5]; NR8383, at 5 µM drug): 29 ± 21%
- % Reduction in CLuptake by NH4Cl (20 mM) (NR8383 cells [5]; NR8383, at 5 µM drug): 36 ± 12%
- % Reduction in CLuptake by Nigericin (10 µM) (NR8383 cells [5]; NR8383, at 5 µM drug): 25 ± 15%
- % Reduction in CLuptake by NH4Cl (20 mM) (NR8383 cells [5]; NR8383, at 20 µM drug): 22 ± 28%
- reduction in Kp in the presence of chemical agents (summary in Discussion) (NR8383 cells [5]): 20–40%

Structure (SMILES): CCCC(C)C1(CC)C(=O)NC(=S)NC1=O (stereo not drawn) [Thiopental]
- Reduction of total uptake (%) [8]: 10%

Structure (SMILES): CNCCC(Oc1ccc(C(F)(F)F)cc1)c1ccccc1 (stereo not drawn) [Fluoxetine]
- Reduction in total uptake (%) [9]: 21%
- Reduction in total uptake (%) [10]: 41%
- Reduction in total uptake (%) [11]: 39%
- Reduction of total uptake (%) [12]: 23%

Structure (SMILES): Cl.N [NH4Cl, ammonium chloride]
- reduced LTR fluorescent signal (NR8383 cells [13]): up to 85%

Structure (SMILES): CO[C@@H]1C[C@@H](C[C@H]2CC[C@H](C)[C@H]([C@@H](C)C(=O)O)O2)O[C@]2(O[C@](C)([C@H]3CC[C@@](C)([C@@H]4O[C@@H]([C@H]5O[C@@](O)(CO)[C@H](C)C[C@@H]5C)C[C@@H]4C)O3)C[C@H]2C)[C@@H]1C [nigericin, nigericin sodium salt]
- reduced LTR fluorescent signal (NR8383 cells [13]): up to 85%

Structure (SMILES): CC[C@@]1([C@@H]2O[C@@H]([C@H]3O[C@@](O)(CO)[C@H](C)C[C@@H]3C)C[C@@H]2C)CC[C@H]([C@]2(C)CC[C@]3(C[C@H](O)[C@@H](C)[C@@H]([C@@H](C)[C@@H](OC)[C@H](C)C(=O)O)O3)O2)O1 [monensin, monensin sodium salt]
- reduced LTR fluorescent signal (NR8383 cells [13]): up to 85%

Reference: PMC4628094, “In Vitro Assessment of Uptake and Lysosomal Sequestration of Respiratory Drugs in Alveolar Macrophage Cell Line NR8383” (Pharmaceutical Research, 2015)
